Reference: patent US20250154174A1, “BICYCLIC HETEROCYCLES AS MRGPRX2 ANTAGONISTS” (Incyte Corporation, priority 2023, published 2025)

How the values were obtained:
Type in all cases: cell-based
MRGPRX2 [1] = target: T1, MRGPRX2 (Homo sapiens, UniProt Q96LB1); assay: MRGPRX2 FLIPR calcium mobilization assay; set-up: host or cells: CHO-K1; details: CHO-K1 cells stably expressing human MRGPRX2; agonist Cortistatin-14 at EC80; Ca2+ release
T1 sequence (Q96LB1 1-330): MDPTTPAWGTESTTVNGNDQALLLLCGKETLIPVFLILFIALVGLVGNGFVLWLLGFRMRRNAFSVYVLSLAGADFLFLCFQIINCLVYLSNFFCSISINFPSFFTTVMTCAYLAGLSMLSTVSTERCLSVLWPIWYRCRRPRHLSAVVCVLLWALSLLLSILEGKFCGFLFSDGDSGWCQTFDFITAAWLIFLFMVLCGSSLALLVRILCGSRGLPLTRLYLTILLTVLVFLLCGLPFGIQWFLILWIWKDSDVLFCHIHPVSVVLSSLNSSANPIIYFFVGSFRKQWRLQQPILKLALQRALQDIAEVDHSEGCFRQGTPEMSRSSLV
Experimental: Chinese hamster ovary (CHO-K1) cells stably expressing human MRGPRX2 were purchased from Genescript (Piscataway, NJ). The cells were maintained in culture medium (Ham's F-12K) containing 10% (v/v) FBS, 200 μg/mL Zeocin, 100 units/mL penicillin G and 100 μg/mL streptomycin (Life Technologies, Carlsbad, CA). For the assay, the cells were harvested and resuspended with culture medium without Zeocin before plating at 8000 cells per well in 20 μL in 384-well black clear bottom cell culture plates (VWR, Radnor, PA). After 24 h culture at 37° C. and 5% CO2, the cells were loaded with 20 μL/well of calcium dye (FLIPR Calcium 6 Assay Kit, Molecular Devices, San Jose, CA) diluted in loading buffer (1× Hank's Balanced Salt Solution (HBSS), 5 mM probenecid, 20 mM 4-(2-hydroxyethyl)-1-piperazineethanesulfonic acid (HEPES), pH 7.4, VWR, Radnor, PA) followed with 45 min. incubation at 37° C. and 40 min. at r.t. in the dark. Cells were then treated with the addition of 10 uL/well test compounds with a range of increasing concentrations diluted in the assay buffer (1×HBSS, 20 mM HEPES, pH 7.4, VWR, Radnor, PA) with FLIPR Penta (Molecular Devices. San Jose, CA) and incubated for 30 min. at r.t. Ca^2+ release was measured with FLIPR Penta with 10 s basal fluorescence measurement, then 12.5 μL of 5× agonist Cortistatin-14 (Tocris, Minneapolis, MN) at final concentration corresponding to the EC80 were added followed with continued fluorescence signal monitoring for an additional 110 s. The base line adjusted (median of first 10s base line) max value of the Relative Fluorescence Unit (RFU) was plotted against compound concentrations. Wells with no compound were served as the positive controls, and wells with high concentration of reference antagonist were used as negative controls. IC50 curves were globally fitted with 3- or 4-parameter Hill equation in a Genedata Screener (Genedata Basel, Switzerland).

MRGPRX2 [2] = target: T1, MRGPRX2; assay: MRGPRX2 IP1 HTRF assay; set-up: host or cells: CHO-K1; details: CHO-K1 cells stably expressing human MRGPRX2; agonist Cortistatin 14 1 μM; IP1 accumulation
Experimental: This assay measures compound inhibition of myo-Inositol 1 phosphate (IP1) accumulation in CHO-K1 cells. Chinese hamster ovary (CHO-K1) cells stably expressing human MRGPRX2 were purchased from GenScript (Piscataway, NJ).
For the HTRF IP1 determination, an IP-One GqKit (Perkin Elmer Cisbio, Waltham, MA), which includes all reagents and buffers in this protocol, was used. The cells were maintained in culture medium (Ham's F-12K) containing 10% (v/v) FBS, and 200 μg/mL Zeocin. For the assay, the cells were harvested and resuspended in culture medium with 2% FBS and without Zeocin, then were passed through a 40 μm filter. Cells were added at 20000 cells in a 5 μL/well to a 384-well white small volume cell culture plate (Greiner VWR, Radnor, PA) which contained 50 nL/well of test compound serially diluted at a selected concentration range in DMSO. 5 μL/well of prepared 2× Stimulation Buffer2 was then added to plates and was incubated at 37° C. with 5% CO2 for 1 h. 5 μL/well of agonist Cortistatin 14 (Bio-TechneR&D Systems, Minneapolis, MN) in 1×Stimulation Buffer 2, for a 1 μM final concentration, was then added to plates and incubated at 37° C. with 5% CO2 for 1 h. 6 μL/well of 1:20 diluted Detection Reagent Mix (d2 and Cryptate) was added to the plates and incubated for 1 h in the dark. Plates were read on the PHERAstar microplate reader (BMG Labtech Cary, NC) to determine the HTRF ratio of the acceptor and donor emission signals. The IP1 concentrations were calculated from a standard curve following the IP-One GQ kit instructions. Wells with DMSO only and wells with high concentration of reference antagonist were used as controls for normalization. Compound IC50 curves were globally fitted with 3- or 4-parameter Hill equation in a Genedata Screener (Genedata Basel, Switzerland).

MRGPRX2 [3] = target: T1, MRGPRX2; assay: MRGPRX2 β-Arrestin assay; set-up: host or cells: PathHunter CHO-K1; details: PathHunter CHO-K1 MRGPRX2 β-Arrestin cell line; agonist Cortistatin 14 0.25 μM
From the text: This assay measures compound inhibition of β-Arrestin recruitment, which is part of the G protein-independent pathway that results from the ligand-activated GPCR phosphorylation by specific GPCR kinases. The PathHunter CHO-K1 MRPGRX2 B-Arrestin Cell line stably expressing ProLink tagged MRGPRX2 and Enzyme Acceptor Tagged B-Arrestin was purchased from Eurofins DiscoverX, (Fremont, CA).
The cells were maintained in culture medium from the Europhins DiscoverX Cell Culture Kit-107 which includes FBS, hygromycin B and G418. For the assay, the cells were harvested and were resuspended with Cell Plating Reagent 2 (Eurofins DiscoverX). Cells were added 10000 cells in 25 μL/well to a 384-well black cell culture plate (Greiner VWR, Radnor, PA) which contained 125 nL/well of compound at a selected serially diluted concentration range or DMSO. The plate was incubated at 37° C. with 5% CO2 for 1 h. 2 μL/well of agonist Cortistatin 14 was diluted in Protein Dilution Buffer, (Eurofins DiscoverX) for a final concentration of 0.25 μM, was added and the plate was incubated at 37° C. with 5% CO2 for 90 min. 14 μL/well of Detection Reagent Mix (PathHunter Detection Kit, Eurofins DiscoverX) was added to the plates and further incubated for 1 h in the dark. Plates were read on the PHERAstar microplate reader (BMG Labtech Cary, NC) measuring luminescence 0.1 to 1 s per well. […]

Measured: IC50

FC(F)(F)c1cn2c(N[C@H]3CCC[C@@H](Nc4nccc5ncccc45)C3)cccc2n1 [Example 3, (1R,3S)—N^1-(1,6-Naphthyridin-5-yl)-N^3-(2-(trifluoromethyl)imidazo[1,2-a]pyridin-5-yl)cyclohexane-1,3-diamine]
0.1 to 100 nM: all assays above

FC(F)(F)c1cn2c(N[C@H]3CC[C@@H](Nc4nccn5cncc45)CC3)cccc2n1 [Example 5, (1s,4s)-N^1-(Imidazo[1,5-a]pyrazin-8-yl)-N^4-(2-(trifluoromethyl)imidazo[1,2-a]pyridin-5-yl)cyclohexane-1,4-diamine]
0.1 to 100 nM: all assays above
